Assay results from US8017557B2, “Benzodioxole derivatives as modulators of proteolytic activity in plants” (Endura S.p.A., priority 2002, dated 2011).
Like-named read-outs stand apart in the source and are kept apart here.

Key:
[1] = test system: peptidase activity in cotton plants; experiment: Photometric assay of peptidase activity with DL-BAPA as substrate in cotton plants; assay type: in vivo, cotton (cv. Sicala V2i); details: for Peptidase activity, PBO treated cv. V2i Bt: DL-BAPA substrate
Description: The photometric assay was carried out following the DL-BAPA hydrolysis at 410 nm. One peptidase unit (U) was defined as the amount of the enzyme, which produces one unit of absorbance variation at 410 nm/minute at pH 8.2 and 30° C. For each extract, the amount of soluble proteins in mg was determined by the Biuret method and the enzymatic activity was then expressed as specific activity i.e. Units/mg soluble proteins.
Each analysis was performed in duplicate or in triplicate and the standard deviation for each point is also indicated. Abscissa: time (days); ordinate: trypsin units/mg soluble protein.
The samples were collected at different development stages of plants, which were: […], 60 and 85 days after sowing. These samples were also analysed for determining the Bt content (as described in example 4). To this aim, the enzymatic activity was tested on crude freeze dried leaf extracts with two different assays: the Radial Diffusion Assay (RDA), in which a protein, such as the bovine gelatine, was used as a substrate to test the endopeptidase activity, and a photometric assay described in the next example, in which DL-BAPA was used as a substrate, to determine a general peptidase activity.
A powder aliquot, which represents each step of plant growth, of the treated and controls samples was extracted in two steps. The powder sample was extracted with buffer 0.1 M Tris-HCl pH 7.7 (1:20 w/v) using an Ultraturrax blender at 24,000×RPM for 2 min in a ice bath to avoid overheating. […] The clear supernatant was collected and filtrated with Whatman paper no 4. The pellet was further extracted with the same procedure, with the exception that in this case the extraction ratio was 1:10 (w/v). Finally, the supernatants of the two extractions processes were joined and then concentrated 4-5 times by centrifugation at 3,000×g at 15° C. for 2 hours, using suitable concentrators (Amicon Inc. Beverly, Mass.—USA), fitted with a membrane of 10 κD cut off.
For each extract, the amount of soluble proteins was determined by the Biuret method and the enzymatic activity was then expressed as specific activity i.e. Units/mg soluble proteins.
The photometric assay was carried out as described in Erlanger, B. F. et al. Arch. Biochem., 1961, 95: 271-278. In the assay is measured the absorbance variation due to DL-BAPA hydrolysis at 410 nm. The assay was performed mixing directly in the cuvette 20 μl of cotton crude extract with 980 μl of DL-BAPA in buffer 0.1 M Tris-HCl pH 8.2. One peptidase unit was defined as the amount of the enzyme which produces one unit of absorbance variation (410 nm) per minute at pH 8.2 and 30° C.
Each series of analysis was performed in duplicate or triplicate. […] In this figure is shown a maximum of peptidase activity around 60 days of development. […] A statistically significant inhibition is observed during the most part of the plant growing cycle. Finally, in table 7 is shown the specific activities of peptidase of treated and untreated Sicala V2i cotton samples. In this table it is also reported the activity differences in percentage between the treated and untreated samples.

Bt toxin (Cry1Ac) = test system: Bt toxin (Cry1Ac)
Description: An immunoenzymatic assay was used to determine the Bt levels at different stages of plant development. • a) Measured Bt toxin values; ordinate: Bt expressed as ppm; abscissa: days of plant culture and where different, plant tissue.
The assay was carried out on samples collected at different plant development stages, which were: 4, 35, 60, 85 days after sowing.
The ELISA Cry1Ab/Cry1Ac Plate Kit was obtained from Envirologix (Portland, Maine—USA). The assay was performed according to the Envirologix protocol with the following modifications: • 1. The cotton freeze-dried powder got from leaf or cotyledon tissues was used instead of the fresh and whole leaf tissue. • 2. The Bt toxin extraction from the cotton freeze-dried powder was done with a sample/buffer ratio of 1:25 (w/v). • 3. The extraction was made leaving the sample in the buffer for at least 4 hours at room temperature, instead of using the Envirologix Disposable Tissue Extractor. The extract was then clarified by centrifugation at 5,000×g for 5 min at room temperature.
Cotton seeds of the cv. Sicala V2i were previously rinsed in distilled water and then placed in equal number in suitable plastic boxes containing settled and sterile sand. Seeds were watered with equal volumes of distilled water and the culture boxes were then covered with a plastic film to avoid evaporation during germination, which was carried out in the dark for 4 days at 30° C. […] After 4 days, these sprouts were collected for testing, whereas the other sprouts were moved in suitable pots and located in the greenhouse at 24° C. during the day and 20° C. in the night.
Treatments were given out vaporizing the diluted formulation on the plants taking care to treat both leaves sides.
Two days after each treatment, a sample of the treated plants, and the correspondent controls, were collected and all leaves were frozen in liquid nitrogen and freeze dried. After this process, the material was powdered in a pestle and then stored in a dry box at room temperature.

[2] = Growth stage 4 days (plantlets)
[3] = Growth stage 35 days (cotyledons)

**Q.** With `CCCCOCCOCCOCc1cc2c(cc1CCC)OCO2` [PBO, 5-[[2-(2-Butoxyethoxy)ethoxy]methyl]-6-propyl-1,3-benzodioxole] as the compound, how does the “Difference % Treated minus untreated (peptidase, DL-BAPA)” value (from here on “Difference % Treated minus untreated”) ([1]; 4 days after sowing) read?
**A.** Its value is 4.99%.

**Q.** And the “Peptidase activity, PBO treated cv. V2i Bt” value (“Peptidase activity” for short) ([1]; 4 days after sowing)?
**A.** The value was 5.21 U/mg of soluble protein × 10^−2.

**Q.** And the “Difference % Treated minus untreated” value ([1]; 35 days after sowing)?
**A.** Its value is −23.54%.

**Q.** What about the “Peptidase activity” value ([1]; 35 days after sowing) of the same compound?
**A.** Its value is 9.43 U/mg of soluble protein × 10^−2.

**Q.** What about the “Difference % Treated minus untreated” value ([1]; 60 days after sowing) of the same compound?
**A.** Its value is −25.55%.

**Q.** What about the “Peptidase activity” value ([1]; 60 days after sowing) of the same compound?
**A.** Its value is 13.62 U/mg of soluble protein × 10^−2.

**Q.** And the “Difference % Treated minus untreated” value ([1]; 85 days after sowing)?
**A.** Its value is 18.68%.

**Q.** And the “Peptidase activity” value ([1]; 85 days after sowing)?
**A.** Its value is 12.42 U/mg of soluble protein × 10^−2.

**Q.** What about the “Bt content in PBO-treated samples vs untreated” value (Bt toxin (Cry1Ac); 35, 60, 85 days after planting) of the same compound?
**A.** The value was “significant lower Bt content”.

**Q.** And the “Bt content in PBO-treated samples vs untreated” value (Bt toxin (Cry1Ac); 4 days)?
**A.** Its value is “no difference”.

**Q.** And the “%: treated − control (Cry1Ac)” value (Bt toxin (Cry1Ac); [2])?
**A.** Its value is −4.823%.

**Q.** What about the “Cry1Ac ppm, cv V2i PBO treated” value (Bt toxin (Cry1Ac); [2]) of the same compound?
**A.** The value was 44.60 ppm.

**Q.** What about the “Δ: treated − control (Cry1Ac)” value (Bt toxin (Cry1Ac); [2]) of the same compound?
**A.** Its value is −2.26 ppm.

**Q.** What about the “%: treated − control (Cry1Ac)” value (Bt toxin (Cry1Ac); [3]) of the same compound?
**A.** Its value is 9.149%.

**Q.** And the “Cry1Ac ppm, cv V2i PBO treated” value (Bt toxin (Cry1Ac); [3])?
**A.** Its value is 66.57 ppm.

**Q.** What about the “Δ: treated − control (Cry1Ac)” value (Bt toxin (Cry1Ac); [3]) of the same compound?
**A.** Its value is 5.58 ppm.

**Q.** And the “%: treated − control (Cry1Ac)” value (Bt toxin (Cry1Ac); Growth stage 35 days (leaves))?
**A.** The value was 38.356%.

**Q.** What about the “Cry1Ac ppm, cv V2i PBO treated” value (Bt toxin (Cry1Ac); Growth stage 35 days (leaves)) of the same compound?
**A.** Its value is 45.45 ppm.

**Q.** And the “Δ: treated − control (Cry1Ac)” value (Bt toxin (Cry1Ac); Growth stage 35 days (leaves))?
**A.** Its value is 12.6 ppm.

**Q.** And the “%: treated − control (Cry1Ac)” value (Bt toxin (Cry1Ac); Growth stage 60 days (leaves))?
**A.** The value was 16.629%.

**Q.** And the “Cry1Ac ppm, cv V2i PBO treated” value (Bt toxin (Cry1Ac); Growth stage 60 days (leaves))?
**A.** The value was 31.07 ppm.

**Q.** What about the “Δ: treated − control (Cry1Ac)” value (Bt toxin (Cry1Ac); Growth stage 60 days (leaves)) of the same compound?
**A.** Its value is 4.43 ppm.

**Q.** What about the “%: treated − control (Cry1Ac)” value (Bt toxin (Cry1Ac); Growth stage 85 days (leaves)) of the same compound?
**A.** Its value is 13.236%.

**Q.** And the “Cry1Ac ppm, cv V2i PBO treated” value (Bt toxin (Cry1Ac); Growth stage 85 days (leaves))?
**A.** The value was 31.91 ppm.

**Q.** And the “Δ: treated − control (Cry1Ac)” value (Bt toxin (Cry1Ac); Growth stage 85 days (leaves))?
**A.** Its value is 3.73 ppm.

**Q.** And the “amount of transgenic toxin after PBO treatment” value (Bt toxin (Cry1Ac); cotton transgenic for the Bt CryI protein)?
**A.** Its value is “higher than in transgenic untreated plants”.
